For series [1], the system named is isolated cardiac fibroblasts. The class given is cell-based, rat. The settings on record: for Effect on MBG stimulation of collagen synthesis (procollagen expression): MBG 10 nM 24 h, PP2 1 μmol/L, herbimycin 1 μmol/L, AG1478 250 nM, N-acetyl cysteine 2.5 mmol/L from 2 hours before. Here is the method:
(§1) Preparation of adult rat cardiac fibroblasts was performed as described previously by Brilla et al. with modifications.
Western blot analysis was performed on protein isolated from tissue homogenates, cell culture whole cell lysates, or nuclear extracts as described previously.
(§2) Representative Western blot for procollagen and quantitative densitometric data obtained in response to different doses of (a) MBG (all N=10), (b) MBG 10 nM contrasted with different doses of ouabain (0.1 to 100 nM) and digoxin (10 nM; all N=8). c, ouabain sensitive Rb uptake as a function of MBG and ouabain concentration (N=4 at each concentration for both MBG and ouabain; data expressed as fraction of control). d, relative proline incorporation in the supernatant and matrix, both will and without collagenase digestion (total). Each group (controls and different doses of MBG) contains N=7 replicants. The difference between the total and after collagenase digestion is reported as collagen. The matrix is the sample that was obtained after removing supernatant and scraping the culture dish. e, mRNA for collagen 1 in MBG-treated (10 nM; N=8) or control (N=8) fibroblasts. f, procollagen stability after cycloheximide treatment. Time 0 is 1 hour after incubation with cycloheximide (20 μg/mL). […] Least-square regression line fit to control (CTL) and MBG data. Bars on quantitative graphs represent the mean.+−.SEM. *P<0.05 and **P<0.01 vs control.
(§3) The PP2, herbimycin AG1478, and N-acetyl cysteine were administered from 2 hours before the addition of MBG and continued throughout the 24 hours of MBG incubation (total of 26 hours). Each bar represents the mean.+−.SEM of n=8 experiments. b, effects of PP2 (1 μmol/L) and N-acetyle cysteine (2.5 mmol/L) on MBG (10 nM)-stimulated proline incorporation into collagen. Again, the PP2 an N-acetyl cysteine were added 2 hours before exposure to MBG. Each bar represents the mean.+−.SEM of N=5 experiments. c, effects of MBG 10 nM on procollagen content in SYF and SYF+ cells. Representative Western blots are shown above quantitative data. SYF blots loaded with 15 μg of protein and SYF+blots loaded with 10 μg of protein. Each bar represents the mean.+−SEM of N-6 determinations In each group. **P<01.10 vs. control.
(§4) The effect of 24 hours of MBG (1 and 10 nM) on TGF-β, Smad 2/3, Smad 4, and pSmad 2/3 expression determined by Western blot. b and c, effects of 24 hours of MBG (10 nM), TGFβ(5 ng/mL), and the TGF-β receptor antagonist SB431542 ([…] on procollagen-1 expression (Western blot) and radiolabeled proline incorporation, respectively also were carried out. SB431542 was added 2 hours before exposure to either TGFβ or MBG (total of 26-hour exposure). Each bar represents the mean.+−.SEM of 6 to 8 determinations. *P<0.05, **P<0.01 vs. control.

Series [2] has as its system isolated cardiac fibroblasts. The series is described as follows: Radiolabeled proline incorporation into collagen (collagen synthesis) in cardiac fibroblasts. The settings on record: for Effect on MBG-stimulated proline incorporation into collagen: MBG 10 nM, PP2 1 μmol/L, N-acetyl cysteine 2.5 mmol/L added 2 hours before. Type of series: cell-based, rat. As to the method:
as §1
Collagen synthesis rates were determined by the method of Nishida et al. with modification.
(§5) To further examine the molecular basis of this cardiac fibrosis, isolated cardiac fibroblasts were subjected to increase doses of MBG (10^−10, 10^−9, and 10^−8 M). […] Using collagenase digestion, we observed that the vast majority of the proline incorporation was into collagen. Using standardized RT-PCR, we observed a doubling of mRNA for collagen-1 at 24 hours in response to 10 nM of MBG.
as §2
as §3, with “The effects of PP2 (1 μmol/L), herbimycin (1 μmol/L), AG1478 (250 nM), and N-acetyl cysteine (2.5 mmol/L) on MBG (10 nM) stimulation of procollagen expression also were found. The” for “The”
as §4

Series [3] has as its system Milan hypertensive rats. The settings on record: cited from earlier work.
The test system of series [4] is fibroblast cell line. Kind of series: Procollagen expression in immortalized fibroblast cell line (Western blot). The class given is cell-based. From the text:
We next examined whether skin fibroblasts lines had similar response. This was done with dermal fibroblasts kindly provided by Dr. Bashar Kahaleh. […] The magnitude of this response is illustrated by comparison to maximal doses of TGFβ, the “classic” stimulus for fibrosis (see below). In addition, we observed that an immortalized fibroblast line responded similarly to MBG, ouabain and digoxin.
Response of dermal fibroblasts to MBG as compared with TGF beta. Note that increase in collagen expression in MBG is approximately 10 fold with 5 or 10 nM MBG.
(In general: Immunoblotting shows a protein as a band on a membrane.)

The conditions of series [5]: cited from earlier work.
Series [6] has as its system SYF+ cells. The series is described as follows: Procollagen expression in SYF+ cells. The settings on record: MBG 10 nM. The class given is cell-based.
Excerpt: (§6) To examine whether cardiotronic steroids induced collagen synthesis by signaling through the Na/K-ATPase, we performed the following studies. First, we used pharmacological antagonism at several steps in the Na/K-ATPase cascade. Specifically, we used pharmacological antagonism of Src activation with PP2, nonspecific tyrosine kinase inhibition with herbimycin, inhibition of EGFR transactivation with AG1478, and nonspecific antioxidant administration with N-acetyle cysteine. […] Next we performed studies in the SYF and SYF+ cells (details available in the online supplement).
as §3, with “The effects of PP2 (1 μmol/L), herbimycin (1 μmol/L), AG1478 (250 nM), and N-acetyl cysteine (2.5 mmol/L) on MBG (10 nM) stimulation of procollagen expression also were found. The” for “The”, “SYF blots loaded with 15 μg of protein and SYF+blots loaded with 10 μg of protein. Each bar represents the mean.+−SEM of N-6 determinations In each group. **P<01.10 vs. control.” left out

In series [7] the target is T1, Na/K-ATPase (Rattus norvegicus, UniProt P06685).
T1 construct: In vitro studies were then pursued with cultured isolated cardiac fibroblasts; endogenous in cells; host or cells: primary isolated cardiac fibroblasts in culture
The series is described as follows: Ouabain sensitive 86Rb uptake in cardiac fibroblasts. Type of series: cell-based. As to the method: as §5
Representative Western blot for procollagen and quantitative densitometric data obtained in response to different doses of (a) MBG (all N=10), (b) MBG 10 nM contrasted with different doses of ouabain (0.1 to 100 nM) and digoxin (10 nM; all N=8). c, ouabain sensitive Rb uptake as a function of MBG and ouabain concentration (N=4 at each concentration for both MBG and ouabain; data expressed as fraction of control). d, relative proline incorporation in the supernatant and matrix, both will and without collagenase digestion (total). Each group (controls and different doses of MBG) contains N=7 replicants. The difference between the total and after collagenase digestion is reported as collagen. […] Bars on quantitative graphs represent the mean.+−.SEM. *P<0.05 and **P<0.01 vs control.

Series [8] deals with SYF cells. The series is described as follows: Procollagen expression in SYF cells. Conditions: MBG 10 nM. Type of series: cell-based.
Excerpt: as §6
as §3, with “The effects of PP2 (1 μmol/L), herbimycin (1 μmol/L), AG1478 (250 nM), and N-acetyl cysteine (2.5 mmol/L) on MBG (10 nM) stimulation of procollagen expression also were found. The” for “The”, “SYF blots loaded with 15 μg of protein and SYF+blots loaded with 10 μg of protein. Each bar represents the mean.+−SEM of N-6 determinations In each group. **P<01.10 vs. control.” left out

Series [9] concerns fibroblasts. Conditions: 48 hours, 15 ng/mL; cited from earlier work.

Take `COc1cc2ncnc(Nc3cccc(Cl)c3)c2cc1OC` [AG1478]: the “Effect on MBG stimulation of collagen synthesis (procollagen expression)” value (“Effect on MBG stimulation” below) in series [1] is on record as “prevented MBG stimulation of collagen synthesis”.

Turning to `CC(=O)N[C@@H](CS)C(=O)O` [N-acetyl cysteine], the “Effect on MBG stimulation” value in series [1] is on record as “prevented MBG stimulation of collagen synthesis”. Moreover, the “Effect on MBG-stimulated proline incorporation into collagen” value in series [2] was “prevented increases in proline incorporation into collagen”.

Regarding `CC(C)(C)n1nc(-c2ccc(Cl)cc2)c2c(N)ncnc21` [PP2], the “Effect on MBG stimulation” value in series [1] is listed as “prevented MBG stimulation of collagen synthesis”. Besides, the “Effect on MBG-stimulated proline incorporation into collagen” value in series [2] is given as “prevented increases in proline incorporation into collagen”.

With `C[C@]12CC[C@H](O)C[C@H]1CC[C@@H]1[C@@H]2CC[C@]2(C)[C@@](O)(c3ccoc3)CC[C@]12O` [PST 2238], in series [3], the “Effect on hypertension and cardiac hypertrophy” value is “ameliorates hypertension, as well as cardiac hypertrophy”.

For the compound `NC(=O)c1ccc(-c2nc(-c3ccc4c(c3)OCO4)c(-c3ccccn3)[nH]2)cc1` [SB431542], the “Procollagen expression relative to baseline (Western blot)” value in [1] (100-μmol/L) is “did not educe procollagen expression below baseline”. Besides, the “Effect on TGF-β and MBG (10 nM) stimulation of collagen expression” value in series [1] (SB431542 added 2 hours before) is reported as “completely blocked”. For the same compound, in series [2] (100-μmol/L), the “Radiolabeled proline incorporation relative to control cells” value is given as “did decrease radiolabeled proline incorporation below that seen with control cells”. Also, in series [2] (SB431542 added 2 hours before), the “Effect on TGF-β and MBG (10 nM) stimulation of radiolabeled proline incorporation” value is “completely blocked”.

For `C[C@H]1O[C@@H](O[C@H]2[C@@H](O)C[C@H](O[C@H]3[C@@H](O)C[C@H](O[C@H]4CC[C@@]5(C)[C@H](CC[C@@H]6[C@@H]5C[C@@H](O)[C@]5(C)[C@@H](C7=CC(=O)OC7)CC[C@]65O)C4)O[C@@H]3C)O[C@@H]2C)C[C@H](O)[C@@H]1O` [digoxin], the “Effect on fibroblast cell line expression of procollagen” value in series [4] is reported as “Comparable effect”. Besides, the “Free fraction of plasma digoxin” value in series [5] (human, in vivo) is given as 70% to 80%. The “Total digoxin levels typically maintained in patients” value in series [5] (patients treated with digoxin) was less than 2 ng/mL.

Consider `CO[C@H]1[C@@H](OC)C[C@H](C)[C@@H](OC)C2=CC(=O)C=C(NC(=O)/C(C)=C/C=C\[C@H](OC)[C@@H](OC(N)=O)/C(C)=C/[C@@H]1C)C2=O` [herbimycin], for which the “Effect on MBG stimulation” value in series [1] is reported as “prevented MBG stimulation of collagen synthesis”.

For the compound `C[C@@H]1O[C@@H](O[C@H]2C[C@@H](O)[C@]3(CO)[C@H]4[C@H](O)C[C@]5(C)[C@@H](C6=CC(=O)OC6)CC[C@]5(O)[C@@H]4CC[C@]3(O)C2)[C@H](O)[C@H](O)[C@H]1O` [ouabain, reference compound], the “Effect on fibroblast cell line expression of procollagen” value in series [4] is listed as “Comparable effect”. Further, the “Upregulation of procollagen expression in SYF+ cells” value in series [6] is listed as “very similar way as the primary cardiac fibroblast cultures”. Also, the “Threshold for inducing collagen expression relative to doses with detectable effects on 86Rb uptake” value in series [7] is given as “log units below”. The “Response of procollagen expression in SYF cells” value in series [8] is “essentially no response”.

With TGF-β, in series [1] (TGF-β 5 ng/mL and MBG 10 nM), the “Synergism with MBG on procollagen expression” value was “did not note any synergism”. For the same compound, the “Maximal increase in collagen production” value in series [9] is given as 2 times.

These data come from patent publication US9072751B2, “Na/K-ATPase ligand” (priority 2006, dated 2015).
